The values that follow come from ChEMBL document CHEMBL1201862, “PubChem BioAssay data set” (2004).

Some test systems named below: A549; ACHN; CAKI-1; CCRF-CEM; COLO 205; EKVX; HL-60; HT-29; K562; KM12; LOX IMVI; Malme-3M; NCI-H23; NCI-H460; NCI-H522; SF-268; SK-OV-3; SW-620; UO-31; HCC 2998.
Experiment in all cases: DTP human tumour cell line panel, 48 h

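In this assay, cells in 96-well plates receive the compound at five concentrations for 48 hours. Endpoints are linearly interpolated between the surrounding concentrations. GI50 is the concentration that inhibits growth by half.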 Activity calls are given as the source filed them. Rule as the data show it: active = GI50 up to about 1.1 µM and inactive = higher.

`CCC1([N+](=O)[O-])CC2C=CC1C2` (stereo not given): the GI50 with A549, in the test with ACHN, with CAKI-1, in the test on CCRF-CEM, with COLO 205 and with EKVX was > 100 µM (inactive) each time. Moreover, the GI50 (commonly the concentration that inhibits growth by half) was 49.9 µM (inactive) with HL-60; > 100 µM (inactive) with HT-29; > 100 µM (inactive) in the test with K562; > 100 µM (inactive) in the test on KM12; > 100 µM (inactive) in the test with LOX IMVI; > 100 µM (inactive) with Malme-3M. The GI50 in the test with NCI-H23, in the test with NCI-H460, in the test with NCI-H522, with SF-268, in the test with SK-OV-3 and with SW-620 was > 100 µM (inactive) in each case. In the test on UO-31, the GI50 was > 100 µM (inactive).

Consider `NNc1cnn(-c2ccccc2)c(=O)c1Cl`, for which the GI50 in the test with A549, in the test on ACHN, in the test with CAKI-1, with CCRF-CEM, with COLO 205 and in the test with HL-60 was > 100 µM (inactive) throughout. Further, the GI50 with HT-29, in the test with K562, in the test on KM12, in the test with LOX IMVI, in the test with Malme-3M and with NCI-H23 was > 100 µM (inactive) throughout. Moreover, the GI50 in the test with NCI-H460, in the test with NCI-H522, in the test with SF-268, with SK-OV-3, in the test on SW-620 and in the test on UO-31 was > 100 µM (inactive) each time.

As to `CCOC(=O)C1=C(C(=O)c2ccc(C)cc2)C(c2cccc([N+](=O)[O-])c2)C(C(=O)c2ccc(C)cc2)=C(C(=O)OCC)N1`, the GI50 was 24.2 µM (inactive) with A549; 15.1 µM (inactive) in the test on ACHN; 19.5 µM (inactive) in the test with CAKI-1; 5.69 µM (inactive) with CCRF-CEM; 1.95 µM (inactive) with COLO 205; 24.1 µM (inactive) with EKVX. Further, the GI50 is 29.8 µM (inactive) in the test with HL-60; 13 µM (inactive) in the test on HT-29; 7.24 µM (inactive) in the test with K562; 12.8 µM (inactive) in the test with KM12; 17.6 µM (inactive) in the test on LOX IMVI; 15.1 µM (inactive) in the test with Malme-3M. The GI50 with NCI-H23 was 15.8 µM (inactive); in the test on NCI-H460 it was 31.6 µM (inactive); in the test with NCI-H522, 15.6 µM (inactive); in the test on SF-268 it was 17.7 µM (inactive); with SK-OV-3, 5.92 µM (inactive); in the test with SW-620, 14.1 µM (inactive). Also, the GI50 with UO-31 is 11.4 µM (inactive).

As for `CC(=O)N/C(=C\c1ccc(/C=C(\NC(C)=O)c2nc3cc(Cl)ccc3[nH]2)cc1)c1nc2ccccc2[nH]1`, the GI50 in the test on A549, in the test on ACHN, in the test on CAKI-1, in the test with CCRF-CEM, with COLO 205 and in the test on EKVX was > 100 µM (inactive) throughout. Besides, the GI50 in the test on HT-29, in the test with K562, in the test on KM12, in the test with Malme-3M, in the test with NCI-H23 and in the test on NCI-H460 was > 100 µM (inactive) throughout. Moreover, the GI50 in the test with NCI-H522, in the test with SF-268, in the test on SK-OV-3 and in the test with SW-620 was > 100 µM (inactive) each time.

On to `Cc1cc(C)nc(NS(=O)(=O)c2ccc(NC(=O)c3cccc4c(Nc5ccc(S(=O)(=O)Nc6nc(C)cc(C)n6)cc5)c5ccccc5nc34)cc2)n1`, for which the GI50 in the test with A549 was 25.8 µM (inactive); in the test with ACHN it was 23.4 µM (inactive); in the test on CAKI-1 it was 22.8 µM (inactive); in the test with CCRF-CEM, 22.2 µM (inactive); in the test on COLO 205, 22.9 µM (inactive); with EKVX it was 24.2 µM (inactive). Moreover, the GI50 in the test on HL-60 was 18.1 µM (inactive); in the test with HT-29, 20 µM (inactive); with K562 it was 19.4 µM (inactive); in the test on KM12, 18.5 µM (inactive); in the test with LOX IMVI, 17.6 µM (inactive); in the test with Malme-3M it was 27.6 µM (inactive). Also, the GI50 with NCI-H23 is 20.3 µM (inactive); in the test on NCI-H460 it was 32 µM (inactive); in the test on NCI-H522, 13.2 µM (inactive); in the test with SF-268 it was 12.9 µM (inactive); in the test with SK-OV-3, 26 µM (inactive); in the test on SW-620 it was 28.1 µM (inactive). In the test on UO-31, the GI50 was 17.7 µM (inactive).

In the case of `Cc1ccc(S(=O)(=O)N2CCSCCSCCSCCN(S(=O)(=O)c3ccc(C)cc3)CC2)cc1`, the GI50 with A549, in the test with ACHN, in the test with COLO 205, in the test on EKVX, in the test with HCC 2998 and in the test with HL-60 was > 100 µM (inactive) throughout. In addition, the GI50 with HT-29, in the test with K562, in the test with KM12, in the test with NCI-H23, with NCI-H460 and with SF-268 was > 100 µM (inactive) each time. Further, the GI50 in the test with SK-OV-3, in the test with SW-620 and in the test on UO-31 was > 100 µM (inactive) in each case.

In the case of `Cc1ccc(NC(=O)CCc2nnc(S)[nH]2)cc1`, the GI50 in the test with A549, with ACHN, in the test on CAKI-1, in the test on CCRF-CEM, in the test with COLO 205 and in the test on EKVX was > 100 µM (inactive) throughout. Moreover, the GI50 with HL-60, with HT-29, in the test with K562, with KM12, in the test on Malme-3M and with NCI-H23 was > 100 µM (inactive) in each case. For the same compound, the GI50 in the test on NCI-H460, in the test on NCI-H522, in the test with SF-268, in the test on SK-OV-3, in the test with SW-620 and with UO-31 was > 100 µM (inactive) each time.

Take `COc1ccc2c3c1O[C@H]1C(=O)C=CC4(n5[nH]c(=O)n(-c6ccccc6)c5=O)C(C2)N(C)CCC314` (stereo not given in full): the GI50 in the test with A549, with ACHN, in the test with CAKI-1, in the test on CCRF-CEM, in the test on COLO 205 and in the test with EKVX was > 100 µM (inactive) in each case. In addition, the GI50 in the test with HL-60, in the test on HT-29, in the test with K562, in the test on KM12, in the test with LOX IMVI and in the test with Malme-3M was > 100 µM (inactive) throughout. The GI50 in the test on NCI-H23, with NCI-H522, with SF-268, in the test on SK-OV-3, with SW-620 and in the test with UO-31 was > 100 µM (inactive) throughout.

`CN(C)CC(C)(C)C(/C=C/c1ccccc1)=N\Nc1ccccc1`: the GI50 in the test with A549 was 0.385 µM (active); with ACHN, 0.132 µM (active); with CCRF-CEM it was 0.367 µM (active); in the test with COLO 205, 3.19 µM (inactive); in the test with EKVX it was 0.378 µM (active); in the test with HL-60 it was 1.16 µM (inactive). For the same compound, the GI50 in the test with HT-29 is 11 µM (inactive); in the test on K562, 0.238 µM (active); in the test on KM12, 0.579 µM (active); in the test with LOX IMVI, 0.296 µM (active); in the test with Malme-3M, 10.4 µM (inactive); in the test with NCI-H23 it was 10.6 µM (inactive). In addition, the GI50 in the test with NCI-H460 is 0.659 µM (active); in the test with NCI-H522 it was 6.14 µM (inactive); in the test on SF-268, 0.172 µM (active); in the test with SK-OV-3 it was 5 µM (inactive); with SW-620, 0.375 µM (active); with UO-31 it was 0.0836 µM (active).

Regarding `N#C/C(=C1\SC(/N=N/c2ccccc2)C(=O)N1c1ccccc1)c1nc2ccccc2[nH]1` (stereo not given), the GI50 in the test with A549 was > 100 µM (inactive); in the test on ACHN, > 100 µM (inactive); with CAKI-1 it was > 100 µM (inactive); in the test with CCRF-CEM, 42.8 µM (inactive); with COLO 205, > 100 µM (inactive); in the test with EKVX it was > 100 µM (inactive). In addition, the GI50 is 48.8 µM (inactive) in the test with HL-60; > 100 µM (inactive) in the test with HT-29; 36.3 µM (inactive) in the test on K562; > 100 µM (inactive) with LOX IMVI; > 100 µM (inactive) in the test on Malme-3M; > 100 µM (inactive) with NCI-H23. Also, the GI50 in the test on NCI-H460 was 36.1 µM (inactive); in the test on NCI-H522, > 100 µM (inactive); in the test on SF-268 it was > 100 µM (inactive); in the test on SK-OV-3, 66.5 µM (inactive); in the test with SW-620 it was > 100 µM (inactive); with UO-31, 24.2 µM (inactive).

As to `CC1OC(=O)N2CCC=CC12` (stereo not given), the GI50 in the test on A549, in the test on ACHN, with CCRF-CEM, with COLO 205, in the test with EKVX and in the test on HT-29 was > 100 µM (inactive) throughout. For the same compound, the GI50 with K562, with KM12, with LOX IMVI, in the test on Malme-3M, with NCI-H23 and with NCI-H460 was > 100 µM (inactive) in each case. The GI50 in the test on NCI-H522, in the test on SF-268, in the test with SK-OV-3, in the test with SW-620 and with UO-31 was > 100 µM (inactive) in each case.
